Measured values as given in patent US8426592B2, “Histone deacetylases, and uses related thereto” (President and Fellows of Harvard College, priority 1996, dated 2013).
Like-named read-outs stand apart in the source and are kept apart here. Non-standard residues stand in square brackets, D forms with d. Residues, ends and D or L forms follow the SMILES beside them. Aoe = N[C@@H](CCCCCC(=O)[C@@H]1CO1)C(=O)O

Key:
histone deacetylase [1] = assay: Histone deacetylase assay, release of [3H]acetic acid from [3H]acetylated histone H4 (1-24) peptide; format: biochemical; conditions: 20 nM; crude or partially purified (Mono Q) bovine thymus nuclear enzyme; pretreatment 30 min at 4° C.
Description: Nuclear proteins from bovine thymus were precipitated with ammonium sulfate and fractionated on a Mono Q column. […] For the histone deacetylase assay, a peptide corresponding to bovine histone H4 (1-24) was synthesized. The peptide was chemically acetylated with sodium [^3H]acetate (5.3 Ci/mmol, New England Nuclear)/BOP reagent (Aldrich) and purified by reverse phase HPLC. Two microliters of [^3H]peptide (˜40,000 dpm) were used per […] assay. After incubation at 37° C. for one hour, the reaction was quenched with 1 M HCl/0.16 M acetic acid (50 μl). Released [^3H]acetic acid was extracted with 600 μl of ethyl acetate and quantified by scintillation counting. […] A280=absorbance at 280 n.
Briefly, thymocytes (˜12 g) prepared from fresh bovine thymus were homgenized in hypotonic lysis buffer [20 mM tris (pH 7.8), 20 mM NaCl, 1 mM EDTA, 10% glycerol, 1 mM PMSF, 1 mM benzamidine, 10 μg/ml each of pepstatin, aprotinin, and leupeptin] by mechanical disruption and the nuclei were isolated by centrifugation at 3000 g. Nuclei were resuspended in lysis buffer and the proteins were extracted with 0.4 M ammonium sulfate. The viscous lysate was sonicated and clarified by centrifugation at 100,000 g for one hour. Proteins were then precipitated with 90% saturated ammonium sulfate and recovered by centrifugation (100,000 g, one hour). […]

trapoxin binding protein = assay: Trapoxin binding, charcoal precipitation assay with [3H]trapoxin; conditions: simultaneous addition, bovine thymus extracts
bovine p46-p50 = assay: Binding of bovine thymus nuclear proteins to K-trap affinity matrix in presence of inhibitors, silver stained gel; conditions: incubation in presence of inhibitor
Description: Nuclear proteins from human Jurkat T cells were prepared identically to those from bovine thymus (FIG. 1B). Molecular size standards (in kilodaltons) are indicated to the right.
K-trap was deprotected with Pd(Ph3P)4 and coupled to an activated agarose matrix (FIG. 2A). […] Bound polypeptides were eluted by boiling the matrix in 1% SDS buffer and separated b polyacrylamide gel electrophoresis.

histone deacetylase [2] = conditions: cited from earlier work; for histone deacetylation: cultured mammalian cells, fractioned cell extracts
mammalian cells = conditions: cited from earlier work; for gene expression and differentiation: certain mammalian cell lines; for cell cycle arrest: mammalian cells
HD1 and RbAp48 = molecular target: T1, HD1 and RbAp48 (Homo sapiens, UniProt Q13547); assay: Immunoblot of proteins eluted from K-trap affinity matrix; format: binding, bovine and human; conditions: affinity purification in presence of inhibitor
T1 construct: endogenous in cells; host or cells: Jurkat nuclear extract (the same blot also carries bovine thymus nuclear proteins)
T1 sequence (Q13547 whole entry): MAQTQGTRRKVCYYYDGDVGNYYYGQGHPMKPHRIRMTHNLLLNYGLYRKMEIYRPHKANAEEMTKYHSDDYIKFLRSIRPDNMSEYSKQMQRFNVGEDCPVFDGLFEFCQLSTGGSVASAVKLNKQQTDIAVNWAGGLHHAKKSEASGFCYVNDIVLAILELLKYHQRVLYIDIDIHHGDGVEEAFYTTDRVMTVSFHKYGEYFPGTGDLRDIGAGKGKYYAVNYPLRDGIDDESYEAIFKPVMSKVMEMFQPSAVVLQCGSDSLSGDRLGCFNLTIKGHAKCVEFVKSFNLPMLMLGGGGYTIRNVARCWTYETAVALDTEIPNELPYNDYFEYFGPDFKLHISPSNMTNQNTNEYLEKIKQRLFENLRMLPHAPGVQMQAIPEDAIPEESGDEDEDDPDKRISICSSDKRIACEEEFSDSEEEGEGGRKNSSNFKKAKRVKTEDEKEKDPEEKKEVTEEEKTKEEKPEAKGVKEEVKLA
T1 sequence (Q09028 2-425 partner): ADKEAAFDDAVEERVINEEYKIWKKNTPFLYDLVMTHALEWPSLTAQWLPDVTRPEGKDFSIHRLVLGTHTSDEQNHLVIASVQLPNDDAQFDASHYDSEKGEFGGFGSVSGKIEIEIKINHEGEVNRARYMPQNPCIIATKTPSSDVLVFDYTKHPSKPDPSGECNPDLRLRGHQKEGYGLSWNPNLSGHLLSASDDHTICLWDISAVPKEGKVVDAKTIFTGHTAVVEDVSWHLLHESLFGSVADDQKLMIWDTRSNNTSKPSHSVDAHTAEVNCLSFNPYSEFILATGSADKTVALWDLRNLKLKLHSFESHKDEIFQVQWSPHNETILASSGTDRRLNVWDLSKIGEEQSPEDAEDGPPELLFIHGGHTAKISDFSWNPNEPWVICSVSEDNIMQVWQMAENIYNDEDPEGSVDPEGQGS
Text: Proteins eluted from the K-trap affinity matrix (FIG. 2) were separated by SDS-PAGE and transferred to Immobilon-P (Millipore). Blots were probed with polyclonal anti-HD1 (319-336) or monoclonal anti-RbAp48 and bound antibodies were detected with enhanced chemiluminescence (Amersham).
To determine the relationship between the proteins from bovine thymus (p46-p50) and the proteins isolated from human Jurkat T cells (p50 and p55), an antiserum was generated against a peptide specified by the HD1 open reading frame (FIG. 3A, amino acids […]).

HD1 = molecular target: T2, HD1 (Homo sapiens, UniProt Q13547); assay: Histone deacetylase activity of anti-HD1(467-482) immunoprecipitates from Jurkat nuclear extract; format: biochemical; conditions: endogenous HD1 from Jurkat crude nuclear extracts
T2 construct: endogenous in cells; host or cells: Jurkat T cells (nuclear extract)
T2 sequence (Q13547 whole entry): as the sequence (Q13547 whole entry) above
T2 sequence (Q09028 2-425 partner limits assumed): as the sequence (Q09028 2-425 partner) above
Description: After resuspending the immunoprecipitates in HDx buffer [20 mM tris (pH 8), 150 mM NaCl, 10% glycerol], inhibitors were added as indicated, and histone deacetylase activity was measured as described in FIG. 1A.
We used affinity purified antibodies directed against a COOH-terminal peptide (amino acids 467 to 482) to immunoprecipitate HD1 from crude nuclear extracts.

[3] = molecular target: T3, recombinant FLAG epitope tagged HD1 (HD1-F) (Homo sapiens, UniProt Q13547); assay: Histone deacetylase activity of anti-FLAG immunoprecipitates of recombinant HD1-F; format: biochemical; conditions: Jurkat cells transfected with pBJ5/HD1-F
T3 construct: expressed in transfected cells; host or cells: Tag Jurkat cells, electroporated with pBJ5/HD1-F
T3 sequence (Q13547 whole entry): as the sequence (Q13547 whole entry) above
Description: Anti-FLAG antibodies conjugated to agarose beads (IBI) were used to immunoprecipitate recombinant HD1 in the presence or absence of FLAG peptide competitor, and histone deacetylase activity was measured as described above.

recombinant HD1-F = molecular target: T4, recombinant HD1-F (Homo sapiens, UniProt Q13547); assay: Interaction between recombinant HD1-F and K-trap affinity matrix, immunoblot; format: binding; conditions: lysates of transfected Jurkat cells
T4 construct: expressed in transfected cells; host or cells: Tag Jurkat cells, electroporated with pBJ5/HD1-F
T4 sequence (Q13547 whole entry): as above
Description: Lysates from Jurkat cells transfected with pBJ5/HD1-F were incubated with the K-trap affinity matrix in the presence or absence of inhibitors. Immunoblots of the eluted proteins were probed with the anti-FLAG M2 monoclonal antibody (IBI).

Compound | histone deacetylase activity after treatment (histone deacetylase [1]) | competition with [3H]trapoxin binding (trapoxin binding protein) | retention of bovine p46-p50 on K-trap matrix in the presence of inhibitor (bovine p46-p50) | mode of inhibition of histone deacetylase activity (histone deacetylase [2]) | histone deacetylation (histone deacetylase [2]) | histone deacetylation (histone deacetylase [2]; listed as Trapoxin) | gene expression and differentiation (mammalian cells) | cell cycle arrest (mammalian cells) | cell cycle arrest (mammalian cells; listed as Trapoxin) | detection of HD1 and RbAp48 in K-trap matrix eluates (HD1 and RbAp48) | histone deacetylase activity of HD1 immunoprecipitates (HD1) | histone deacetylase activity of HD1-F immunoprecipitates [3] | competition of HD1-F interaction with K-trap affinity matrix (recombinant HD1-F) | potency relative to sodium butyrate (mammalian cells)
O=C1N[C@@H](Cc2ccccc2)C(=O)N2CCC[C@@H]2C(=O)N[C@@H](CCCCCC(=O)[C@@H]2CO2)C(=O)N[C@H]1Cc1ccccc1 [trapoxin] (cyclo(FF[dP][Aoe])) | abolished deacetylase activity | completed | not retained | “irreversible” inhibitor | inhibit histone deacetylation | inhibits histone deacetylation in vivo | alter gene expression and induce certain mammalian cell lines to differentiate | G1 and G2 phase cell cycle arrest | causes mammalian cells to arrest in the cell cycle | – | – | – | – | –
CC(/C=C/C(=O)NO)=C\[C@@H](C)C(=O)c1ccc(N(C)C)cc1 [trichostatin] | abolished deacetylase activity | competed | not retained | – | inhibit histone deacetylation | – | alter gene expression and induce certain mammalian cell lines to differentiate | G1 and G2 phase cell cycle arrest | – | neither HD1 nor RbAp48 was detected | inhibited | sensitive | fully competed by nanomolar concentrations | five orders of magnitude more potent
